IC50 and MTD data for ten compounds are collected here from US20090298800A1, “1,25-DIHYDROXY, 20-CYCLOPROPYL,26-27-DEUTEROALKYL VITAMIN D3 COMPOUNDS AND METHODS OF USE THEREOF” (BioXell S.p.A., priority 2005, published 2009).

Data set [1] has as its system IFN-γ production. Briefly: IFN-γ production in the mixed leukocyte response (MLR) of allogeneic PBMC. The conditions noted are these: 120 h, 5 days, ELISA, read-out: INF-γ IC50. It counts as cell-based. The protocol: Immature dendritic cells (DC) were prepared as described in Romani, N. et al. (Romani, N. et al. (1996) J. Immunol. Methyl. 196:137). IFN-γ production by allogeneic T cell activation in the mixed leukocyte response (MLR) was determined as described in Penna, G., et al., J Immunol., 164: 2405-2411 (2000).
Briefly, peripheral blood mononuclear cells (PBMC) were separated from buffy coats by Ficoll gradient and the same number (3×10^5) of allogeneic PBMC from 2 different donors were co-cultured in 96-well flat-bottom plates. The vitamin D3 compounds were added to each of the cultures. After 5 days, IFN-γ production in the MLR assay was measured by ELISA and the results expressed as amount (nM) of test compound required to induce 50% inhibition of IFN-γ production (IC50).
On the technique in general: In an ELISA, binding on a coated surface is turned into a signal by an enzyme label.

Data set [2] has as its system RT112. Kind of data set: Proliferation assay, bladder cancer cell line RT112. The conditions noted are these: 72 h culture, CyQuant proliferation assay. It is filed as cell-based, human. The protocol: (§1) Bladder cancer cell lines (T24, RT112, HT1376 and RT4 are human bladder cancer cell lines; NHEK are normal human keratinocytes) were obtained from the European Collection of Cell Cultures (Salisbury, UK). Cells were plated at 3×10^3 per well, in flat bottomed 96-well plates in 100 μl of DMEM medium containing: 5% Fetal Clone i, […] gentamicin, 1 mM sodium pyruvate and 1% non-essential amino acids. After culturing for 24 h at 37° C. in 5% CO2, to allow cells to adhere to the plates, VDR ligands (compounds (1)-(9)) were added at concentrations ranging from 100 μM to 0.3 μM in 100 μl of above-mentioned complete medium. After a further 72 h of culture, cell proliferation was measured using a fluorescence-based proliferation assay kit. (CyQuant Cell Proliferation Assay Kit, Molecular Probes, Eugene, Oreg., USA). The IC50 was calculated from the regression curve of the titration data.

Data set [3] has as its system HT 1376. Briefly: Proliferation assay, bladder cancer cell line HT1376. It is filed as cell-based. The conditions noted are these: Homo sapiens, 72 h culture, CyQuant proliferation assay. As to the method: as §1
In data set [4] the test system is RT4. Kind of data set: Proliferation assay, bladder cancer cell line RT4. It counts as cell-based, human. The settings on record: 72 h culture, CyQuant proliferation assay. As to the method:
as §1

Data set [5] relates to NHEK. Kind of data set: Proliferation assay, normal human keratinocytes NHEK. It counts as cell-based. The settings on record: 72 h culture, CyQuant proliferation assay. The protocol:
as §1

Data set [6] is described as follows: Determination of Maximum Tolerated Dose (MTD) in mice (serum calcium). It counts as in vivo. The conditions noted are these: mouse, po; female C57BL/6 mice, p.o. daily for four days; highest dose without hypercalcemia (serum calcium>10.7 mg/dl). The protocol:
The maximum tolerated dose of the vitamin D3 compounds of the invention were determined in eight week-old female C57BL/6 mice (3 mice/group) dosed orally (0.1 ml/mouse) with various concentrations of Vitamin D3 analogs daily for four days. Analogs were formulated in miglyol for a final concentration of 0.01, 0.03, 0.1, 0.3, 1, 3, 10, 30, 100 and 300 μg/kg when given at 0.1 ml/mouse p.o. daily. Blood for serum calcium assay was drawn by tail bleed on day five, the final day of the study. Serum calcium levels were determined using a colorimetric assay (Sigma Diagnostics, procedure no. 597). The highest dose of analog tolerated without inducing hypercalcemia (serum calcium>10.7 mg/dl) was taken as the maximum tolerated dose (MTD).

The test system of data set [7] is Renin mRNA. Briefly: Renin mRNA inhibition in murine juxtaglomerular cell line As4.1. It is filed as cell-based. The conditions noted are these: Mus musculus, As4.1 cells treated 24 h at 10^−8, 10^−9 and 10^−10 M, real time PCR normalized to β-actin, read-out: Renin mRNA inh.As4.1/wt. The protocol: As4.1 cells (80% subconfluent) were treated in complete medium with compounds of the invention at 10^−8,10^−9 and 10^−10 M for 24 h. Total RNA was extracted using RNeasy Mini kit (Qiagen); treated with DNase I (Qiagen) and Reverse Transcription Reagent (Applied Biosystems) with Random Examers were used for reverse transcription according to the manufacturers' instructions. Real Time PCR analysis was performed in multiplex using commercially available β-actin VIC-conjugated probe (cat. n. 4352341E, Applied Biosystems) and custom designed mRENIN FAM-conjugated probe (Assay by Design, Applied Biosystems; Forward: […]; Reverse: […]; Probe: FAM-[…]-MGB). Reactions were performed in a 25 μL volume containing 12.5 μl […] (Applied Biosystems), 10 ng/reaction/well cDNA, and 2.5 μM each gene-specific primer. An ABI PRISM 7700 analyzer (Applied Biosystems) was used at 50° C. for 2 minutes and 95° C. for 10 minutes, followed by 40 cycles at 95° C. for 15 seconds and 60° C. for 1 minute. Cycle threshold (Ct) values were exported onto Excel worksheets for analysis. Test cDNA results were normalized versus mouse β-actin housekeeping gene. Fold differences in gene expression between the subtracted versus the unsubtracted populations were expressed using the method of 2^−ΔΔCt. (Table 4)
On the technique in general: Quantitative PCR measures a nucleic acid by following its amplification.

Turning to `C=C1/C(=C\C=C2/CCC[C@]3(C)C([C@H](C)CCCC(C)(C)O)CC[C@@H]23)C[C@@H](O)C[C@@H]1O` (stereo partly drawn) [1,25(OH)2D3, 1,25-dihydroxycholecalciferol, reference compound], the IC50 in data set [1] was determined as 0.0496 nM; in data set [2], 28.7 µM; in data set [2] (Homo sapiens, RT-112, 72 h), 19 µM; in data set [3], 50 µM; in data set [4] it was 26 µM; in data set [4] (Homo sapiens, RT-4, 72 h), 45 µM. Besides, the IC50 in data set [5] stood at 4.5 µM.
On to `[2H]C([2H])([2H])C(O)(CCCC1([C@H]2CCC3/C(=C/C=C4C[C@@H](O)C[C@H](O)C4)CCC[C@@]32C)CC1)C([2H])([2H])[2H]` (stereo partly drawn) [Compound 1, 1,25-Dihydroxy-20-cyclopropyl-26,27-hexadeutero-19-nor-cholecalciferol], for which the MTD at 4 days in data set [6] is 0.03 mg/kg. For the same compound, the IC50 was 0.051 nM in data set [1]; more than 30 µM in data set [2] (Homo sapiens, RT-112); 11.7 µM in data set [4] (Homo sapiens, RT-4); 5.6 µM in data set [5]; 0.155 µM in data set [7].
For the compound `[2H]C([2H])([2H])C(O)(CCCC1([C@H]2CCC3/C(=C/C=C4C[C@@H](OC(C)=O)C[C@H](OC(C)=O)C4)CCC[C@@]32C)CC1)C([2H])([2H])[2H]` (stereo partly drawn) [Compound 2, 1,3-Di-O-acetyl-1,25-dihydroxy-20-cyclopropyl-26,27-hexadeutero-19-nor-cholecalciferol], in data set [6], the MTD at 4 days was 0.03 mg/kg. Also, the IC50 in data set [1] came to 0.388 nM; in data set [2] (Homo sapiens, RT-112), 16.3 µM; in data set [4] (Homo sapiens, RT-4), 3.1 µM; in data set [5], 7.2 µM; in data set [7], 0.102 µM.
Consider `[2H]C([2H])([2H])C(O)(CCCC1([C@H]2CCC3/C(=C/C=C4/C[C@@H](O)C[C@H](O)C4=C)CCC[C@@]32C)CC1)C([2H])([2H])[2H]` (stereo partly drawn) [Compound 3, 1,25-Dihydroxy-20-cyclopropyl-26,27-hexadeutero-cholecalciferol], for which the MTD at 4 days in data set [6] is 0.03 mg/kg. Besides, the IC50 in data set [1] is 0.065 nM; in data set [2] (Homo sapiens, RT-112), 19.7 µM; in data set [4] (Homo sapiens, RT-4), 2.9 µM; in data set [5] it was 6.6 µM; in data set [7], 0.0429 µM.
With `[2H]C([2H])([2H])C(O)(CCCC1([C@H]2CCC3/C(=C/C=C4/C[C@@H](OC(C)=O)C[C@H](OC(C)=O)C4=C)CCC[C@@]32C)CC1)C([2H])([2H])[2H]` (stereo partly drawn) [Compound 4, 1,3-Di-O-acetyl-1,25-dihydroxy-20-cyclopropyl-26,27-hexadeutero-cholecalciferol], in data set [6], the MTD at 4 days is 0.03 mg/kg. In addition, the IC50 in data set [1] is 0.464 nM; in data set [2] (Homo sapiens, RT-112) it was 18.7 µM; in data set [4] (Homo sapiens, RT-4) it was 3 µM; in data set [5], 5.6 µM; in data set [7], 0.274 µM.
In the case of `[2H]C([2H])([2H])C(O)(CCCC1([C@H]2CCC3/C(=C/C=C4/C[C@@H](O)C[C@H](F)C4=C)CCC[C@@]32C)CC1)C([2H])([2H])[2H]` (stereo partly drawn) [Compound 5, 1α-Fluoro-25-hydroxy-20-cyclopropyl-26,27-hexadeutero-cholecalciferol], in data set [6], the MTD at 4 days is 0.1 mg/kg. Further, the IC50 in data set [1] was more than 10 nM; in data set [2] (Homo sapiens, RT-112), 15.7 µM; in data set [4] (Homo sapiens, RT-4) it was 3.1 µM; in data set [5], 4.7 µM.
Turning to `[2H]C([2H])([2H])C(O)(CCCC1([C@H]2CCC3/C(=C/C=C4/C[C@@H](OC(C)=O)C[C@H](F)C4=C)CCC[C@@]32C)CC1)C([2H])([2H])[2H]` (stereo partly drawn) [Compound 6, 3-O-acetyl-1α-fluoro-25-hydroxy-20-cyclopropyl-cholecalciferol], in data set [6], the MTD at 4 days is 0.03 mg/kg. The IC50 in data set [1] came out at 0.747 nM; in data set [2] (Homo sapiens, RT-112) it was 19.7 µM; in data set [4] (Homo sapiens, RT-4), 4.5 µM; in data set [5], 5.6 µM; in data set [7] it was 0.00448 µM.
Consider `[2H]C([2H])([2H])C(O)(CCCC1(C2=CCC3/C(=C/C=C4/CC(O)C[C@H](O)C4)CCC[C@]23C)CC1)C([2H])([2H])[2H]` (stereo partly drawn) [Compound 7, 1,25-Dihydroxy-16-ene-20 cyclopropyl-26,27-hexadeutero-19-nor-cholecalciferol], for which the MTD at 4 days in data set [6] was 0.001 mg/kg. Also, the IC50 in data set [1] is 0.032 nM; in data set [2] (Homo sapiens, RT-112) it was more than 30 µM; in data set [4] (Homo sapiens, RT-4), 8.9 µM; in data set [5] it was more than 10 µM; in data set [7], 0.00736 µM.
On to `[2H]C([2H])([2H])C(O)(CCCC1(C2=CCC3/C(=C/C=C4/CC(O)C[C@H](O)C4=C)CCC[C@]23C)CC1)C([2H])([2H])[2H]` (stereo partly drawn) [Compound 8, 1,25-Dihydroxy-16-ene-20-cyclopropyl-26,27-hexadeutero-cholecalciferol], for which the maximum tolerated dose (MTD) at 4 days in data set [6] is 0.01 mg/kg. Also, the IC50 in data set [1] was 0.063 nM; in data set [2] (Homo sapiens, RT-112) it was not below 30 µM; in data set [4] (Homo sapiens, RT-4) it was 2.4 µM; in data set [5], 7 µM; in data set [7], 0.00489 µM.
In the case of `[2H]C([2H])([2H])C(O)(CCCC1(C2=CCC3/C(=C/C=C4/CC(O)C[C@H](F)C4=C)CCC[C@]23C)CC1)C([2H])([2H])[2H]` (stereo partly drawn) [Compound 9, 1α-Fluoro-25-hydroxy-16-ene-20-cyclopropyl-26,27-hexadeutero-cholecalciferol], the MTD at 4 days in data set [6] is 0.01 mg/kg. Moreover, the IC50 in data set [1] is 0.492 nM; in data set [2] (Homo sapiens, RT-112), not below 30 µM; in data set [4] (Homo sapiens, RT-4), 4.3 µM; in data set [5] it was 7 µM; in data set [7], 0.0128 µM.

What is called MTD is the largest dose that counted as tolerated.
